Test results published in ChEMBL document CHEMBL3132850, “5-Nor carbocyclic nucleosides: unusual nonnucleoside inhibitors of HIV-1 reverse transcriptase” (Medchemcomm, 2013).

molecular target: Human immunodeficiency virus type 1 reverse transcriptase (Human immunodeficiency virus 1, UniProt Q72547); experiment: Inhibition of HIV1 wild type reverse transcriptase expressed in Escherichia coli BL21 (DE3) using [alpha-32P]dATP after 30 mins by liquid scintillation counting; details: not given

Row | IC50 | Structure (SMILES)
1 | > 50 µM | Cc1cc(=O)n(Cc2ccccc2)c(=O)n1C1C=CC(OC(=O)c2ccccc2)C1 (racemic)
2 | > 50 µM | Cc1ccc(Cn2c(=O)cc(C)n(C3C=CC(OC(=O)c4ccccc4)C3)c2=O)cc1 (racemic)
3 | > 50 µM | Cc1cc(C)cc(Cn2c(=O)cc(C)n(C3C=CC(OC(=O)c4ccccc4)C3)c2=O)c1 (racemic)
4 | > 100 µM | O=C(OC1C=CC(n2ccc(=O)[nH]c2=O)C1)c1ccccc1 (racemic)
5 | > 100 µM | Cc1cc(=O)[nH]c(=O)n1C1C=CC(OC(=O)c2ccccc2)C1 (racemic)
6 | > 100 µM | O=c1ccn(C2C=CC(O)C2)c(=O)n1Cc1ccccc1 (racemic)

test system: Human immunodeficiency virus 1; experiment: Antiviral activity against HIV1 3B infected in human CEM cells assessed as reduction of giant cell formation after 4 days by microscopic analysis; type: functional, organism-based; details: Human immunodeficiency virus 1, 3B, CCRF-CEM, 96 h

Row | EC50 | Structure (SMILES)
7 | > 10 µM | Cc1cc(=O)n(Cc2ccccc2)c(=O)n1C1C=CC(OC(=O)c2ccccc2)C1 (racemic)
8 | > 10 µM | Cc1ccc(Cn2c(=O)cc(C)n(C3C=CC(OC(=O)c4ccccc4)C3)c2=O)cc1 (racemic)
9 | > 10 µM | Cc1cc(C)cc(Cn2c(=O)cc(C)n(C3C=CC(OC(=O)c4ccccc4)C3)c2=O)c1 (racemic)
10 | > 250 µM | O=C(OC1C=CC(n2ccc(=O)[nH]c2=O)C1)c1ccccc1 (racemic)
11 | > 50 µM | Cc1cc(=O)[nH]c(=O)n1C1C=CC(OC(=O)c2ccccc2)C1 (racemic)
12 | 0.11 µM | CC(C)Nc1cccnc1N1CCN(C(=O)c2cc3cc(NS(C)(=O)=O)ccc3[nH]2)CC1 [DELAVIRDINE]

Row | Structure (SMILES) | EC50
13 | Cc1ccnc2c1NC(=O)c1cccnc1N2C1CC1 [NEVIRAPINE] | 0.024 µM

test system: not listed separately; experiment: Cytotoxicity against human CEM cells after 3 days; type: cell-based; details: CEM cells (CCRF-CEM)

Row | Structure (SMILES) | CC50 at 72 h
14 | Cc1cc(=O)n(Cc2ccccc2)c(=O)n1C1C=CC(OC(=O)c2ccccc2)C1 (racemic) | 34 µM
15 | Cc1ccc(Cn2c(=O)cc(C)n(C3C=CC(OC(=O)c4ccccc4)C3)c2=O)cc1 (racemic) | 20 µM
16 | Cc1cc(C)cc(Cn2c(=O)cc(C)n(C3C=CC(OC(=O)c4ccccc4)C3)c2=O)c1 (racemic) | 25 µM
17 | O=C(OC1C=CC(n2ccc(=O)[nH]c2=O)C1)c1ccccc1 (racemic) | > 250 µM
18 | Cc1cc(=O)[nH]c(=O)n1C1C=CC(OC(=O)c2ccccc2)C1 (racemic) | > 250 µM
19 | O=c1ccn(C2C=CC(O)C2)c(=O)n1Cc1ccccc1 (racemic) | > 250 µM
20 | CC(C)Nc1cccnc1N1CCN(C(=O)c2cc3cc(NS(C)(=O)=O)ccc3[nH]2)CC1 [DELAVIRDINE] | > 25 µM
21 | Cc1ccnc2c1NC(=O)c1cccnc1N2C1CC1 [NEVIRAPINE] | > 25 µM
